Measured values published in US7186831B2, “5-halo-2-alkyl[1,2,4]triazolo[1,5-a]pyrimidin-7-amines” (priority 2001, dated 2007).

Experiment: log P by HPLC
Type: physicochemical
Conditions: HPLC, gradient method, acetonitrile/0.1% aqueous phosphoric acid; EEC directive 79/831 Annex V. A8

| SMILES | logP |
| --- | --- |
| CC1CCCCN1c1c(-c2c(F)cccc2F)c(Cl)nc2nc(C3CC3)nn12 (stereo not shown) [compound 680] | 3.17 |
| CC1CCN(c2c(-c3c(F)cccc3F)c(Cl)nc3nc(C4CC4)nn23)CC1 [compound 681] | 4.34 |
| Fc1cccc(F)c1-c1c(Cl)nc2nc(C3CC3)nn2c1N1CCCCC1 [compound 682] | 3.9 |
| Fc1cccc(F)c1-c1c(Cl)nc2nc(C3CC3)nn2c1N1CCOCC1 [compound 683] | 2.78 |
| Cc1nc2nc(Cl)c(-c3c(F)cccc3F)c(NC(C)C(C)C)n2n1 (stereo not shown) [compound 684] | 3.18 |
| Cc1nc2nc(Cl)c(-c3c(F)cccc3F)c(NC(C)C(C)(C)C)n2n1 (stereo not shown) [compound 685] | 3.56 |
| Cc1nc2nc(Cl)c(-c3c(F)cc(F)cc3F)c(N3OCCCC3C)n2n1 (stereo not shown) [compound 686] | 3.42 |
| CCNc1c(-c2ccc(F)cc2F)c(Cl)nc2nc(C)nn12 [compound 687] | 3.08 |
| Cc1nc2nc(Cl)c(-c3c(F)cccc3Cl)c(NC(C)C(C)C)n2n1 (stereo not shown) [compound 688] | 3.43 |
| Fc1ccc(-c2c(Cl)nc3nc(C4CC4)nn3c2N2CCCCO2)c(F)c1 [compound 690] | 3.56 |
| Cc1nc2nc(Cl)c(-c3ccc(F)cc3Cl)c(N3CCCCN3)n2n1 [compound 691] | 2.94 |
| Cc1nc2nc(Cl)c(-c3c(F)cc(F)cc3F)c(N3CCCCN3)n2n1 [compound 692] | 2.83 |
| Cc1nc2nc(Cl)c(-c3ccc(F)cc3F)c(N3OCCC3C)n2n1 (stereo not shown) [compound 695] | 2.79 |
| Cc1nc2nc(Cl)c(-c3ccccc3Cl)c(NC(C)C(C)C)n2n1 (stereo not shown) [compound 696] | 3.46 |
| Cc1nc2nc(Cl)c(-c3ccc(F)cc3Cl)c(NCC(F)F)n2n1 [compound 697] | 2.54 |
| CC(C)CN(C)c1c(-c2c(F)cccc2Cl)c(Cl)nc2nc(C3CC3)nn12 [compound 698] | 4.32 |
| COCCN(C)c1c(-c2c(F)cccc2Cl)c(Cl)nc2nc(C3CC3)nn12 [compound 699] | 3.3 |
| C=C(C)CN(C)c1c(-c2c(F)cccc2Cl)c(Cl)nc2nc(C3CC3)nn12 [compound 700] | 4.21 |
| CCN(CCOC)c1c(-c2c(F)cccc2Cl)c(Cl)nc2nc(C3CC3)nn12 [compound 701] | 3.66 |
| CC1CCCN1c1c(-c2c(F)cccc2Cl)c(Cl)nc2nc(C3CC3)nn12 (stereo not shown) [compound 702] | 3.94 |
| Fc1cccc(Cl)c1-c1c(Cl)nc2nc(C3CC3)nn2c1N1CCCC1C(F)(F)F (stereo not shown) [compound 703] | 4.1 |

| SMILES | logP |
| --- | --- |
| Fc1cccc(Cl)c1-c1c(Cl)nc2nc(C3CC3)nn2c1N1CCCC1 [compound 704] | 3.55 |
| CC1CCCCN1c1c(-c2c(F)cccc2Cl)c(Cl)nc2nc(C3CC3)nn12 (stereo not shown) [compound 705] | 4.54 |
| CC1CCN(c2c(-c3c(F)cccc3Cl)c(Cl)nc3nc(C4CC4)nn23)CC1 [compound 706] | 4.59 |
| Fc1cccc(Cl)c1-c1c(Cl)nc2nc(C3CC3)nn2c1N1CCC(F)CC1 [compound 707] | 3.63 |
| Fc1cccc(Cl)c1-c1c(Cl)nc2nc(C3CC3)nn2c1N1CCCCC1 [compound 708] | 4.19 |
| Fc1cccc(Cl)c1-c1c(Cl)nc2nc(C3CC3)nn2c1N1CCOCC1 [compound 709] | 3.05 |
| CCNc1c(-c2ccc(F)cc2F)c(Cl)nc2nc(C3CC3)nn12 [compound 712] | 2.97 |
| N#CCNc1c(-c2ccc(F)cc2F)c(Cl)nc2nc(C3CC3)nn12 [compound 713] | 2.42 |
| Fc1ccc(-c2c(Cl)nc3nc(C4CC4)nn3c2NCC(F)(F)F)c(F)c1 [compound 714] | 3.17 |
| Fc1ccc(-c2c(Cl)nc3nc(C4CC4)nn3c2NC2CCCCC2C(F)(F)F)c(F)c1 (stereo not shown) [compound 715] | 4.08 |
| Fc1ccc(-c2c(Cl)nc3nc(C4CC4)nn3c2NC2CC(C(F)(F)F)CC(C(F)(F)F)C2)c(F)c1 (stereo not shown) [compound 716] | 4.31 |
| CCOC(=O)CN(C)c1c(-c2ccc(F)cc2F)c(Cl)nc2nc(C3CC3)nn12 [compound 717] | 3.28 |
| CN(CCC#N)c1c(-c2ccc(F)cc2F)c(Cl)nc2nc(C3CC3)nn12 [compound 718] | 2.79 |
| CN(CC#N)c1c(-c2ccc(F)cc2F)c(Cl)nc2nc(C3CC3)nn12 [compound 719] | 2.79 |
| COC(=O)CN(C)c1c(-c2ccc(F)cc2F)c(Cl)nc2nc(C3CC3)nn12 [compound 720] | 2.95 |
| CN(CCCl)c1c(-c2ccc(F)cc2F)c(Cl)nc2nc(C3CC3)nn12 [compound 721] | 3.5 |
| CN(C)c1c(-c2ccc(F)cc2F)c(Cl)nc2nc(C3CC3)nn12 [compound 722] | 3.06 |
| CCN(CCN(C)C)c1c(-c2ccc(F)cc2F)c(Cl)nc2nc(C3CC3)nn12 [compound 723] | 1.65 |
| CCN(CCN)c1c(-c2ccc(F)cc2F)c(Cl)nc2nc(C3CC3)nn12 [compound 724] | 1.47 |
| CCN(CCC#N)c1c(-c2ccc(F)cc2F)c(Cl)nc2nc(C3CC3)nn12 [compound 725] | 3.07 |
| CCCN(CCCN)c1c(-c2ccc(F)cc2F)c(Cl)nc2nc(C3CC3)nn12 [compound 726] | 1.61 |

| SMILES | logP |
| --- | --- |
| CCOC(=O)CN(c1c(-c2ccc(F)cc2F)c(Cl)nc2nc(C3CC3)nn12)C1CC1 [compound 727] | 3.84 |
| CC(=O)NC1CCN(c2c(-c3ccc(F)cc3F)c(Cl)nc3nc(C4CC4)nn23)C1 (stereo not shown) [compound 728] | 2.17 |
| Fc1ccc(-c2c(Cl)nc3nc(C4CC4)nn3c2N2CCCC2C(F)(F)F)c(F)c1 (stereo not shown) [compound 729] | 4.14 |
| CC(=O)C1CCN(c2c(-c3ccc(F)cc3F)c(Cl)nc3nc(C4CC4)nn23)CC1 [compound 730] | 3.07 |
| COC(=O)C1CCN(c2c(-c3ccc(F)cc3F)c(Cl)nc3nc(C4CC4)nn23)CC1 [compound 731] | 3.38 |
| Fc1ccc(-c2c(Cl)nc3nc(C4CC4)nn3c2N2CCC(Br)CC2)c(F)c1 [compound 732] | 4.08 |
| COC(=O)C1CCCCN1c1c(-c2ccc(F)cc2F)c(Cl)nc2nc(C3CC3)nn12 (stereo not shown) [compound 733] | 3.92 |
| Fc1ccc(-c2c(Cl)nc3nc(C4CC4)nn3c2N2CCC(N3CCOCC3)CC2)c(F)c1 [compound 734] | 1.55 |
| CN1CCN(c2c(-c3ccc(F)cc3F)c(Cl)nc3nc(C4CC4)nn23)CC1 [compound 735] | 1.43 |
| CC1CN(c2c(-c3ccc(F)cc3F)c(Cl)nc3nc(C4CC4)nn23)CC(C)O1 (stereo not shown) [compound 736] | 3.63 |
| Cc1cccc(Nc2c(-c3ccc(F)cc3F)c(Cl)nc3nc(C4CC4)nn23)c1 [compound 737] | 3.61 |
| Fc1ccc(Nc2c(-c3ccc(F)cc3F)c(Cl)nc3nc(C4CC4)nn23)cc1 [compound 738] | 3.27 |
| CC(C)Nc1c(-c2c(F)cccc2F)c(Cl)nc2nc(C3CC3)nn12 [compound 739] | 3.14 |
| Fc1cccc(F)c1-c1c(Cl)nc2nc(C3CC3)nn2c1NC1CCCC1 [compound 740] | 3.66 |
| FC(F)CNc1c(-c2ccc(Cl)cc2Cl)c(Cl)nc2nc(C3CC3)nn12 [compound 741] | 3.42 |
| FC(F)(F)CNc1c(-c2ccc(Cl)cc2Cl)c(Cl)nc2nc(C3CC3)nn12 [compound 742] | 3.72 |
| Fc1cccc(F)c1-c1c(Cl)nc2nc(C3CC3)nn2c1N1OC2CCC1C2 (stereo not shown) [compound 743] | 3.23 |
| CC(C)CNc1c(-c2c(F)cccc2F)c(Cl)nc2nc(C3CC3)nn12 [compound 744] | 3.44 |
| Clc1ccccc1-c1c(Cl)nc2nc(C3CC3)nn2c1NCC1CC1(Cl)Cl (stereo not shown) [compound 745] | 3.78 |
| CC(C)CN(N)c1c(-c2ccc(Cl)cc2Cl)c(Cl)nc2nc(C3CC3)nn12 [compound 750] | 4.36 |
| CC(C)C(C)Nc1c(-c2c(F)cccc2F)c(Cl)nc2nc(C3CC3)nn12 (stereo not shown) [compound 751] | 3.82 |

| SMILES | logP |
| --- | --- |
| C=C(C)CN(CC)c1c(-c2c(F)cccc2F)c(Cl)nc2nc(C3CC3)nn12 [compound 752] | 4.31 |
| Fc1cccc(F)c1-c1c(Cl)nc2nc(C3CC3)nn2c1N1CCCCO1 [compound 753] | 3.47 |
| CC(C)CN(N)c1c(-c2c(F)cccc2F)c(Cl)nc2nc(C3CC3)nn12 [compound 754] | 3.47 |
| C=C(C)CNc1c(-c2c(F)cccc2F)c(Cl)nc2nc(C3CC3)nn12 [compound 760] | 3.28 |
| CCC(C)Nc1c(-c2c(F)cccc2F)c(Cl)nc2nc(C3CC3)nn12 (stereo not shown) [compound 761] | 3.44 |
| CC(C)(C)CNc1c(-c2c(F)cccc2F)c(Cl)nc2nc(C3CC3)nn12 [compound 762] | 3.9 |
| Fc1cccc(F)c1-c1c(Cl)nc2nc(C3CC3)nn2c1NCC(F)F [compound 763] | 2.72 |
| CC(Nc1c(-c2c(F)cccc2F)c(Cl)nc2nc(C3CC3)nn12)C(F)(F)F (stereo not shown) [compound 764] | 3.98 |
| Cc1nc2nc(Cl)c(-c3ccc(F)cc3Cl)c(NCC(F)(F)F)n2n1 [compound 766] | 2.8 |
| C=C(C)CN(CC)c1c(-c2ccc(Cl)cc2Cl)c(Cl)nc2nc(C3CC3)nn12 [compound 769] | 5.25 |
| Fc1cccc(F)c1-c1c(Cl)nc2nc(C3CC3)nn2c1N1CC=CCO1 [compound 770] | 3.32 |
| Fc1cccc(F)c1-c1c(Cl)nc2nc(C3CC3)nn2c1NCC(F)(F)F [compound 771] | 3.04 |
| CC(C)CN(N)c1c(-c2c(F)cc(F)cc2F)c(Cl)nc2nc(C3CC3)nn12 [compound 773] | 3.65 |
| CC(Nc1c(-c2ccc(Cl)cc2Cl)c(Cl)nc2nc(C3CC3)nn12)C(=O)O (stereo not shown) [compound 774] | 2.7 |
| Cc1nc2nc(Cl)c(-c3ccc(Cl)cc3Cl)c(N3OC4CCC3C4)n2n1 (stereo not shown) [compound 780] | 3.41 |
| C=C(C)CN(CC)c1c(-c2ccc(Cl)cc2Cl)c(Cl)nc2nc(C)nn12 [compound 783] | 4.56 |
| Cc1nc2nc(Cl)c(-c3ccc(Cl)cc3Cl)c(N3CCCCN3)n2n1 [compound 784] | 3.35 |
| Fc1ccc(-c2c(Cl)nc3nc(C4CC4)nn3c2N2CCCCO2)c(Cl)c1 [compound 785] | 3.87 |
| Fc1cc(F)c(-c2c(Cl)nc3nc(C4CC4)nn3c2N2CC=CCO2)c(F)c1 [compound 786] | 3.56 |
